Measured values reported in paper PMC9019041, “Structural insights into the peptide selectivity and activation of human neuromedin U receptors” (Nature Communications, 2022).
Where two headings read alike, the source gives them in different places. Where no end group is shown, it is not given here.

Assays:
Assay type in all cases: cell-based
NMUR2 H309A = molecular target: T1, NMUR2 H309A (Homo sapiens, UniProt Q9GZQ4, H309A); test: IP-One assay, NMUR2 H309A; details: mean ± S.E.M., three independent experiments (n=3), SEM, read-out: IP1 accumulation pEC50 ± S.E.M. (converted)
T1 construct: expressed in transfected cells; host or cells: AD293 cells
T1 sequence (Q9GZQ4 whole entry H309A): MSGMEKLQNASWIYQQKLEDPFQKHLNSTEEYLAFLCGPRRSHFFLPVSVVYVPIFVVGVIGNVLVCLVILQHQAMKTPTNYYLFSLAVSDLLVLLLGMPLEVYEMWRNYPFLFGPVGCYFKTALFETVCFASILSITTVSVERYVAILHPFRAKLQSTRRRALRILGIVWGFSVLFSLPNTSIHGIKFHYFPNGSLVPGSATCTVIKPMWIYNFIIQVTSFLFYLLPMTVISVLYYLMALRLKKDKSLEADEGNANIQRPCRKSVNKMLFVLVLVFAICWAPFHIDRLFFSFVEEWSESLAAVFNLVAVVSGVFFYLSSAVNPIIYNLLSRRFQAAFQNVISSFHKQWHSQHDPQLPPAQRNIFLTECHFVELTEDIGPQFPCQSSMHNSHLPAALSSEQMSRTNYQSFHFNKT
Experimental: (§1) IP-One production was measured using the IP-One HTRF kit (Cisbio)[62]. Briefly, AD293 cells (Agilent) were grown to a density of 400,000–500,000 cells per mL and then infected with separate plasmids at a suitable concentration. The culture was collected by centrifugation 24 h after incubation at 37 °C in 5% CO2 with a Stimulation Buffer. The cell suspension was then dispensed in a white 384-well plate at a volume of 7 μl per well before adding 7 μl of ligands. The mixture was incubated for 1 h at 37 °C. IP-One-d2 and anti-IP-One Cryptate dissolved in Lysis Buffer (3 μl each) were subsequently added and incubated for 15-30 min at room temperature before measurement. Intracellular IP-One measurement was carried with the IP-One HTRF kit and EnVision multi-plate reader (PerkinElmer) according to the manufacturer’s instructions. Data were normalized to the baseline response of the ligand.
(§2) The significance was determined with two-side, one-way ANOVA with Tukey’s test, and ^*P < 0.05 was considered statistically significant.

NMUR1 Q335A = molecular target: T2, NMUR1 Q335A (Homo sapiens, UniProt Q9HB89, Q335A); test: IP-One assay, NMUR1 Q335A; details: mean ± S.E.M., three independent experiments (n=3), SEM, read-out: IP1 accumulation pEC50 ± S.E.M. (converted)
T2 construct: The full-length human NMUR1 and NMUR2 were modified; expressed in transfected cells; host or cells: AD293 cells
T2 sequence (Q9HB89 whole entry Q335A): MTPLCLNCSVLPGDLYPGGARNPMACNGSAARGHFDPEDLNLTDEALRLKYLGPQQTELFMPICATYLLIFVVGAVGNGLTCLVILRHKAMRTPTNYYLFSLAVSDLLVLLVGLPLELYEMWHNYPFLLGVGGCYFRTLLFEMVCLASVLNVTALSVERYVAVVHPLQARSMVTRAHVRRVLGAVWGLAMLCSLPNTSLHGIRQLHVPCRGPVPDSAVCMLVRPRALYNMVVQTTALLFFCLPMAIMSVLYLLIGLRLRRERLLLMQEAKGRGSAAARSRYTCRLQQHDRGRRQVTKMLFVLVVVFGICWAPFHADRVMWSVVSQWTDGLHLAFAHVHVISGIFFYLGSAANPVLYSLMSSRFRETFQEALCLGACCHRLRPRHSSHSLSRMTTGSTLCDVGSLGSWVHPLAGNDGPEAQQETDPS
Experimental: as §1, §2

NMUR2 E105A = molecular target: T3, NMUR2 E105A (Homo sapiens, UniProt Q9GZQ4, E105A); test: IP-One assay, NMUR2 E105A; details: mean ± S.E.M., three independent experiments (n=3), SEM, read-out: IP1 accumulation pEC50 ± S.E.M. (converted)
T3 construct: expressed in transfected cells; host or cells: AD293 cells
T3 sequence (Q9GZQ4 whole entry E105A): as the sequence (Q9GZQ4 whole entry H309A) above, with E105A, A309H counted along it
Experimental: as §1, §2

NMUR2 R288A = molecular target: T4, NMUR2 R288A (Homo sapiens, UniProt Q9GZQ4, R288A); test: IP-One assay, NMUR2 R288A; details: mean ± S.E.M., three independent experiments (n=3), SEM, read-out: IP1 accumulation pEC50 ± S.E.M. (converted)
T4 construct: expressed in transfected cells; host or cells: AD293 cells
T4 sequence (Q9GZQ4 whole entry R288A): as the sequence (Q9GZQ4 whole entry H309A) above, with R288A, A309H counted along it
Experimental: as §1, §2

NMUR1 F334A = molecular target: T5, NMUR1 F334A (Homo sapiens, UniProt Q9HB89, F334A); test: IP-One assay, NMUR1 F334A; details: mean ± S.E.M., three independent experiments (n=3), SEM, read-out: IP1 accumulation pEC50 ± S.E.M. (converted)
T5 construct: The full-length human NMUR1 and NMUR2 were modified; expressed in transfected cells; host or cells: AD293 cells
T5 sequence (Q9HB89 whole entry F334A): as the sequence (Q9HB89 whole entry Q335A) above, with F334A, A335Q counted along it
Experimental: as §1, §2

NMUR1 Y125A = molecular target: T6, NMUR1 Y125A (Homo sapiens, UniProt Q9HB89, Y125A); test: IP-One assay, NMUR1 Y125A; details: mean ± S.E.M., three independent experiments (n=3), SEM, read-out: IP1 accumulation pEC50 ± S.E.M. (converted)
T6 construct: The full-length human NMUR1 and NMUR2 were modified; expressed in transfected cells; host or cells: AD293 cells
T6 sequence (Q9HB89 whole entry Y125A): as the sequence (Q9HB89 whole entry Q335A) above, with Y125A, A335Q counted along it
Experimental: as §1, §2

NMUR2 Y52A = molecular target: T7, NMUR2 Y52A (Homo sapiens, UniProt Q9GZQ4, Y52A); test: IP-One assay, NMUR2 Y52A; details: mean ± S.E.M., three independent experiments (n=3), SEM, read-out: IP1 accumulation pEC50 ± S.E.M. (converted)
T7 construct: expressed in transfected cells; host or cells: AD293 cells
T7 sequence (Q9GZQ4 whole entry Y52A): as the sequence (Q9GZQ4 whole entry H309A) above, with Y52A, A309H counted along it
Experimental: as §1, §2

NMUR2 N181A = molecular target: T8, NMUR2 N181A (Homo sapiens, UniProt Q9GZQ4, N181A); test: IP-One assay, NMUR2 N181A; details: mean ± S.E.M., three independent experiments (n=3), SEM, read-out: IP1 accumulation pEC50 ± S.E.M. (converted)
T8 construct: expressed in transfected cells; host or cells: AD293 cells
T8 sequence (Q9GZQ4 whole entry N181A): as the sequence (Q9GZQ4 whole entry H309A) above, with N181A, A309H counted along it
Experimental: as §1, §2

NMUR1 E120A = molecular target: T9, NMUR1 E120A (Homo sapiens, UniProt Q9HB89, E120A); test: IP-One assay, NMUR1 E120A; details: mean ± S.E.M., three independent experiments (n=3), SEM, read-out: IP1 accumulation pEC50 ± S.E.M. (converted)
T9 construct: The full-length human NMUR1 and NMUR2 were modified; expressed in transfected cells; host or cells: AD293 cells
T9 sequence (Q9HB89 whole entry E120A): as the sequence (Q9HB89 whole entry Q335A) above, with E120A, A335Q counted along it
Experimental: as §1, §2

NMUR2 D287A = molecular target: T10, NMUR2 D287A (Homo sapiens, UniProt Q9GZQ4, D287A); test: IP-One assay, NMUR2 D287A; details: mean ± S.E.M., three independent experiments (n=3), SEM, read-out: IP1 accumulation pEC50 ± S.E.M. (converted)
T10 construct: expressed in transfected cells; host or cells: AD293 cells
T10 sequence (Q9GZQ4 whole entry D287A): as the sequence (Q9GZQ4 whole entry H309A) above, with D287A, A309H counted along it
Experimental: as §1, §2

NMUR1 H338A = molecular target: T11, NMUR1 H338A (Homo sapiens, UniProt Q9HB89, H338A); test: IP-One assay, NMUR1 H338A; details: mean ± S.E.M., three independent experiments (n=3), SEM, read-out: IP1 accumulation pEC50 ± S.E.M. (converted)
T11 construct: The full-length human NMUR1 and NMUR2 were modified; expressed in transfected cells; host or cells: AD293 cells
T11 sequence (Q9HB89 whole entry H338A): as the sequence (Q9HB89 whole entry Q335A) above, with A335Q, H338A counted along it
Experimental: as §1, §2

NMUR2 F44A = molecular target: T12, NMUR2 F44A (Homo sapiens, UniProt Q9GZQ4, F44A); test: IP-One assay, NMUR2 F44A; details: mean ± S.E.M., three independent experiments (n=3), SEM, read-out: IP1 accumulation pEC50 ± S.E.M. (converted)
T12 construct: The full-length human NMUR1 and NMUR2 were modified; expressed in transfected cells; host or cells: AD293 cells
T12 sequence (Q9GZQ4 whole entry F44A): as the sequence (Q9GZQ4 whole entry H309A) above, with F44A, A309H counted along it
Experimental: as §1, §2

NMUR2 T205A = molecular target: T13, NMUR2 T205A (Homo sapiens, UniProt Q9GZQ4, T205A); test: IP-One assay, NMUR2 T205A; details: mean ± S.E.M., three independent experiments (n=3), SEM, read-out: IP1 accumulation pEC50 ± S.E.M. (converted)
T13 construct: expressed in transfected cells; host or cells: AD293 cells
T13 sequence (Q9GZQ4 whole entry T205A): as the sequence (Q9GZQ4 whole entry H309A) above, with T205A, A309H counted along it
Experimental: as §1, §2

NMUR2 V310A = molecular target: T14, NMUR2 V310A (Homo sapiens, UniProt Q9GZQ4, V310A); test: IP-One assay, NMUR2 V310A; details: mean ± S.E.M., three independent experiments (n=3), SEM, read-out: IP1 accumulation pEC50 ± S.E.M. (converted)
T14 construct: expressed in transfected cells; host or cells: AD293 cells
T14 sequence (Q9GZQ4 whole entry V310A): as the sequence (Q9GZQ4 whole entry H309A) above, with A309H, V310A counted along it
Experimental: as §1, §2

NMUR2 F316A = molecular target: T15, NMUR2 F316A (Homo sapiens, UniProt Q9GZQ4, F316A); test: IP-One assay, NMUR2 F316A; details: mean ± S.E.M., three independent experiments (n=3), SEM, read-out: IP1 accumulation pEC50 ± S.E.M. (converted)
T15 construct: expressed in transfected cells; host or cells: AD293 cells (Agilent)
T15 sequence (Q9GZQ4 whole entry F316A): as the sequence (Q9GZQ4 whole entry H309A) above, with A309H, F316A counted along it
Experimental: as §1, §2

NMUR1 D316A = molecular target: T16, NMUR1 D316A (Homo sapiens, UniProt Q9HB89, D316A); test: IP-One assay, NMUR1 D316A; details: mean ± S.E.M., three independent experiments (n=3), SEM, read-out: IP1 accumulation pEC50 ± S.E.M. (converted)
T16 construct: The full-length human NMUR1 and NMUR2 were modified; expressed in transfected cells; host or cells: AD293 cells
T16 sequence (Q9HB89 whole entry D316A): as the sequence (Q9HB89 whole entry Q335A) above, with D316A, A335Q counted along it
Experimental: as §1, §2

NMUR2 W297A = molecular target: T17, NMUR2 W297A (Homo sapiens, UniProt Q9GZQ4, W297A); test: IP-One assay, NMUR2 W297A; details: mean ± S.E.M., three independent experiments (n=3), SEM, read-out: IP1 accumulation pEC50 ± S.E.M. (converted)
T17 construct: expressed in transfected cells; host or cells: AD293 cells
T17 sequence (Q9GZQ4 whole entry W297A): as the sequence (Q9GZQ4 whole entry H309A) above, with W297A, A309H counted along it
Experimental: as §1, §2

NMUR2 Y317A = molecular target: T18, NMUR2 Y317A (Homo sapiens, UniProt Q9GZQ4, Y317A); test: IP-One assay, NMUR2 Y317A; details: mean ± S.E.M., three independent experiments (n=3), SEM, read-out: IP1 accumulation pEC50 ± S.E.M. (converted)
T18 construct: expressed in transfected cells; host or cells: AD293 cells (Agilent)
T18 sequence (Q9GZQ4 whole entry Y317A): as the sequence (Q9GZQ4 whole entry H309A) above, with A309H, Y317A counted along it
Experimental: as §1, §2

NMUR2 N306A = molecular target: T19, NMUR2 N306A (Homo sapiens, UniProt Q9GZQ4, N306A); test: IP-One assay, NMUR2 N306A; details: mean ± S.E.M., three independent experiments (n=3), SEM, read-out: IP1 accumulation pEC50 ± S.E.M. (converted)
T19 construct: expressed in transfected cells; host or cells: AD293 cells
T19 sequence (Q9GZQ4 whole entry N306A): as the sequence (Q9GZQ4 whole entry H309A) above, with N306A, A309H counted along it
Experimental: as §1, §2

NMUR1 WT = molecular target: T20, NMUR1 WT (Homo sapiens, UniProt Q9HB89); test: IP-One assay, NMUR1 WT
T20 construct: The full-length human NMUR1 and NMUR2 were modified; expressed in transfected cells; host or cells: AD293 cells
T20 sequence (Q9HB89 whole entry): as the sequence (Q9HB89 whole entry Q335A) above, with A335Q counted along it
Experimental: as §1, §2

NMUR2 Y213A = molecular target: T21, NMUR2 Y213A (Homo sapiens, UniProt Q9GZQ4, Y213A); test: IP-One assay, NMUR2 Y213A; details: mean ± S.E.M., three independent experiments (n=3), SEM, read-out: IP1 accumulation pEC50 ± S.E.M. (converted)
T21 construct: expressed in transfected cells; host or cells: AD293 cells
T21 sequence (Q9GZQ4 whole entry Y213A): as the sequence (Q9GZQ4 whole entry H309A) above, with Y213A, A309H counted along it
Experimental: as §1, §2

NMUR1 H200A = molecular target: T22, NMUR1 H200A (Homo sapiens, UniProt Q9HB89, H200A); test: IP-One assay, NMUR1 H200A; details: mean ± S.E.M., three independent experiments (n=3), SEM, read-out: IP1 accumulation pEC50 ± S.E.M. (converted)
T22 construct: The full-length human NMUR1 and NMUR2 were modified; expressed in transfected cells; host or cells: AD293 cells
T22 sequence (Q9HB89 whole entry H200A): as the sequence (Q9HB89 whole entry Q335A) above, with H200A, A335Q counted along it
Experimental: as §1, §2

NMUR2 F291A = molecular target: T23, NMUR2 F291A (Homo sapiens, UniProt Q9GZQ4, F291A); test: IP-One assay, NMUR2 F291A; details: mean ± S.E.M., three independent experiments (n=3), SEM, read-out: IP1 accumulation pEC50 ± S.E.M. (converted)
T23 construct: expressed in transfected cells; host or cells: AD293 cells
T23 sequence (Q9GZQ4 whole entry F291A): as the sequence (Q9GZQ4 whole entry H309A) above, with F291A, A309H counted along it
Experimental: as §1, §2

NMUR2 E102A = molecular target: T24, NMUR2 E102A (Homo sapiens, UniProt Q9GZQ4, E102A); test: IP-One assay, NMUR2 E102A; details: mean ± S.E.M., three independent experiments (n=3), SEM, read-out: IP1 accumulation pEC50 ± S.E.M. (converted)
T24 construct: expressed in transfected cells; host or cells: AD293 cells
T24 sequence (Q9GZQ4 whole entry E102A): as the sequence (Q9GZQ4 whole entry H309A) above, with E102A, A309H counted along it
Experimental: as §1, §2

NMUR2 T203A = molecular target: T25, NMUR2 T203A (Homo sapiens, UniProt Q9GZQ4, T203A); test: IP-One assay, NMUR2 T203A; details: mean ± S.E.M., three independent experiments (n=3), SEM, read-out: IP1 accumulation pEC50 ± S.E.M. (converted)
T25 construct: expressed in transfected cells; host or cells: AD293 cells
T25 sequence (Q9GZQ4 whole entry T203A): as the sequence (Q9GZQ4 whole entry H309A) above, with T203A, A309H counted along it
Experimental: as §1, §2

FRVDEEFQSPFASQSRGYFLFRPRN-NH2 [NMU, neuromedin U]
EC50 (NMUR2 H309A): 0.646 nM
EC50 (NMUR1 Q335A): 18.2 nM
EC50 (NMUR2 E105A): 11.7 nM
EC50 (NMUR2 R288A): 33.1 nM
EC50 (NMUR1 F334A): 85.1 nM
EC50 (NMUR1 Y125A): 20 nM
EC50 (NMUR2 Y52A): 1 nM
EC50 (NMUR2 N181A): 2.75 nM
EC50 (NMUR1 E120A): 10.7 nM
EC50 (NMUR2 D287A): 1.15 nM
EC50 (NMUR1 H338A): 29.5 nM
EC50 (NMUR2 F44A): 102 nM
EC50 (NMUR2 T205A): 1.95 nM
EC50 (NMUR2 V310A): 0.631 nM
EC50 (NMUR2 F316A): 8.71 nM
EC50 (NMUR1 D316A): 10.5 nM
EC50 (NMUR2 W297A): 66.1 nM
EC50 (NMUR2 Y317A): 2.63 nM
EC50 (NMUR2 N306A): 10 nM
EC50 (NMUR1 WT; NMUR1 WT, mean ± S.E.M., three independent experiments (n=3), SEM, read-out: IP1 accumulation pEC50 ± S.E.M. (converted)): 3.55 nM
EC50 (NMUR1 WT; wild-type (WT) NMUR1, Supplementary Fig. 1, three independent experiments, read-out: pEC50 of NMU (converted)): 4.47 nM
EC50 (NMUR2 Y213A): 7.24 nM
EC50 (NMUR1 H200A): 41.7 nM
EC50 (NMUR2 F291A): 4.68 nM
EC50 (NMUR2 E102A): 30.9 nM
EC50 (NMUR2 T203A): 0.891 nM
